Laboratory results taken from patent US20210246157A1, “CAMPTOTHECIN DERIVATIVES AND PREPARATION METHODS AND APPLICATIONS THEREOF” (priority 2018, published 2021).
≈ marks a conversion by molar mass, not a printed value.

Assays:
[1] = Solubility test, equilibrium method, UV-visible spectrophotometry; type: physicochemical; details: thermodynamic from solid
Description: The solubility test is carried out by equilibrium method. […] An appropriate amount of the compound is weighed and dissolved in 1 mL of methanol solution to prepare a control solution with a certain concentration (C0). The concentration of test solution is calculated according to the following formula: Cx=(Ax/A0)C0, wherein Cx is concentration of test solution, Ax is absorbance of test solution, C0 is concentration of control solution, and A0 is absorbance of control solution.

SW-480 = assay: Cytotoxicity test (MTT, 72 h); details: Homo sapiens, SW480, 72 h, read-out: 50% Inhibiting Concentration value (IC50)
Description: (§1) Cells at logarithmic growth period are inoculated in a 96-well plate overnight, then drugs with a certain gradient concentrations are added, and incubation is carried out in a cell culture chamber (5% CO2, 37° C.) for 72 h.

HT-29 = assay: Cytotoxicity test (MTT, 72 h); details: Homo sapiens, HT-29, 72 h, read-out: 50% Inhibiting Concentration value (IC50)
Description: as §1

HCT-116 = assay: Cytotoxicity test (MTT, 72 h); details: Homo sapiens, HCT-116, 72 h, read-out: 50% Inhibiting Concentration value (IC50)
Description: (§2) In order to investigate the antitumor activities of the compounds, a variety of tumor cell lines for test are selected. Cells at logarithmic growth period are inoculated in a 96-well plate overnight, then drugs with a certain gradient concentrations are added, and incubation is carried out in a cell culture chamber (5% CO2, 37° C.) for 72 h.

A549 = assay: Cytotoxicity test (MTT, 72 h); details: Homo sapiens, A549, 72 h, read-out: 50% Inhibiting Concentration value (IC50)
Description: as §2

H1975 = assay: Cytotoxicity test (MTT, 72 h); details: Homo sapiens, NCI-H1975, 72 h, read-out: 50% Inhibiting Concentration value (IC50)
Description: as §2

HepG2 = assay: Cytotoxicity test (MTT, 72 h); details: Homo sapiens, HepG2, 72 h, read-out: 50% Inhibiting Concentration value (IC50)
Description: as §2

BGC-823 = assay: Cytotoxicity test (MTT, 72 h); details: Homo sapiens, BGC-823, 72 h, read-out: 50% Inhibiting Concentration value (IC50)
Description: as §2

ECA-109 = assay: Cytotoxicity test (MTT, 72 h); details: Homo sapiens, ECa-109, 72 h, read-out: 50% Inhibiting Concentration value (IC50)
Description: as §2

K562 = assay: Cytotoxicity test (MTT, 72 h); details: Homo sapiens, K562, 72 h, read-out: 50% Inhibiting Concentration value (IC50)
Description: as §2

PC3 = assay: Cytotoxicity test (MTT, 72 h); details: Homo sapiens, PC-3, 72 h, read-out: 50% Inhibiting Concentration value (IC50)
Description: as §2

143B = assay: Cytotoxicity test (MTT, 72 h); details: Homo sapiens, read-out: 50% Inhibiting Concentration value (IC50)
Description: as §2

MDA-MB-231 = assay: Cytotoxicity test (MTT, 72 h); details: Homo sapiens, MDA-MB-231, 72 h, read-out: 50% Inhibiting Concentration value (IC50)
Description: as §2

Hela = assay: Cytotoxicity test (MTT, 72 h); details: Homo sapiens, read-out: 50% Inhibiting Concentration value (IC50)
Description: as §2

TPC-1 = assay: Cytotoxicity test (MTT, 72 h); details: Homo sapiens, TPC1, 72 h, read-out: 50% Inhibiting Concentration value (IC50)
Description: as §1

SKOV-3 = assay: Cytotoxicity test (MTT, 72 h); details: Homo sapiens, SK-OV-3, 72 h, read-out: 50% Inhibiting Concentration value (IC50)
Description: as §1

PANC-1 = assay: Cytotoxicity test (MTT, 72 h); details: Homo sapiens, PANC-1, 72 h, read-out: 50% Inhibiting Concentration value (IC50)
Description: as §1

[2] = aqueous with cosolvent or surfactant or cyclodextrin

Structure (SMILES)	solubility [1, 2] [µg/mL]	solubility ([1]; pH 7.4, aqueous buffer) [µg/mL]	solubility ([1]; saline or isotonic) [µg/mL]	solubility ([1]; water) [µg/mL]	IC50 (SW-480) [µM]	IC50 (HT-29) [µM]	IC50 (HCT-116) [µM]	IC50 (A549) [µM]	IC50 (H1975) [µM]	IC50 (HepG2) [µM]	IC50 (BGC-823) [µM]	IC50 (ECA-109) [µM]	IC50 (K562) [µM]	IC50 (PC3) [µM]	IC50 (143B) [µM]	IC50 (MDA-MB-231) [µM]	IC50 (Hela) [µM]	IC50 (TPC-1) [µM]	IC50 (SKOV-3) [µM]	IC50 (PANC-1) [µM]
CCc1c2c(nc3ccc(OC(=O)OCCOCc4cn([C@H]5O[C@@H](CO)[C@H](O)[C@@H](O)[C@@H]5O)nn4)cc13)-c1cc3c(c(=O)n1C2)COC(=O)[C@]3(O)CC [Compound 37]	360 (≈ 497 µM)	54.4 (≈ 75.2 µM)	725 (≈ 1000 µM)	159 (≈ 220 µM)	0.014	1.94	2.34	13.1	21.1	2.19	1.25	1.62	1.95	10.9	17.6	1.82	12.7	18.3	2.63	13.7
CCc1c2c(nc3ccc(OC(=O)OCCOCCOCCOCCOCc4cn([C@H]5O[C@@H](CO)[C@H](O)[C@@H](O)[C@@H]5O)nn4)cc13)-c1cc3c(c(=O)n1C2)COC(=O)[C@]3(O)CC [Compound 42]	120 (≈ 140 µM)	85.2 (≈ 99.6 µM)	5870 (≈ 6860 µM)	162 (≈ 189 µM)	0.167	13.5	3.01	5.73	12.8	0.174	0.139	11.3	2.5	4.77	10.6	0.145	6.87	15.3	0.209	6.87
CCc1c2c(nc3ccc(OC(=O)OCCOCCOCc4cn([C@H]5O[C@@H](CO)[C@H](O)[C@@H](O)[C@@H]5O)nn4)cc13)-c1cc3c(c(=O)n1C2)COC(=O)[C@]3(O)CC [Compound 47]	650 (≈ 846 µM)	60.8 (≈ 79.2 µM)	511 (≈ 665 µM)	109 (≈ 142 µM)	0.274	0.694	0.273	2.95	10.8	2.74	0.228	0.578	0.228	2.46	8.96	2.28	3.54	12.9	3.29	3.54
CCc1c2c(nc3ccc(OC(=O)OCCOCCOCCOCc4cn([C@H]5O[C@@H](CO)[C@H](O)[C@@H](O)[C@@H]5O)nn4)cc13)-c1cc3c(c(=O)n1C2)COC(=O)[C@]3(O)CC [Compound 52]	320 (≈ 394 µM)	85.2 (≈ 105 µM)	446 (≈ 549 µM)	3050 (≈ 3750 µM)	0.167	0.859	0.527	11.1	21.8	8.22	0.139	0.716	0.439	9.26	18.1	6.85	13.3	26.1	9.86	13.3
CCc1c2c(nc3ccc(OC(=O)OCCOCc4cn(CCO[C@H]5O[C@@H](CO)[C@H](O)[C@@H](O)[C@@H]5O)nn4)cc13)-c1cc3c(c(=O)n1C2)COC(=O)[C@]3(O)CC [Compound 56]	2180 (≈ 2830 µM)	85.2 (≈ 111 µM)	1110 (≈ 1440 µM)	636 (≈ 828 µM)	0.112	9.39	0.137	4.7	8.25	10.2	0.093	7.83	0.114	3.91	6.88	8.53	5.63	9.9	12.3	5.63
